From patent US20040142971A1, “BENZOTHIOPHENE COMPOUNDS HAVING ANTIINFECTIVE ACTIVITY” (GeneSoft, Inc., priority 2001, published 2004)

Tests used:
Test in all cases: MIC, NCCLS broth microdilution
B. Cereus ATCC 11778 = assay type: cell-based, Bacillus cereus; settings: A = B. Cereus ATCC 11778
Excerpt: (§1) In vitro biological activity data were collected for a variety of microorganisms, including Bacillus cereus (ATCC 11778), Staphylococcus aureus (ATCC 27660 (a methicillin resistant strain (MRSA), ATCC 33591 and ATCC 43300); ATCC 13709, a methicillin sensitive strain (MSSA)); Streptococcus pneumoniae (ATCC 51422, a penicillin resistant strain (PRSP)), Enterococcus faecium (ATCC 51559, a vancomycin resistant strain (VRE)), and Staphylococcus epidermidis (ATCC 700586, a methycillin resistant strain (MRSE)). Additionally, antifungal activity data were collected for Candida albicans (ATCC 38247). Minimal inhibition concentrations (MIC's) were determined using the National Committee for Clinical Laboratory Standards (NCCLS) broth microdilution assay in microtiter plates, as set forth in: (1) the guidelines of the National Committee for Clinical Laboratory Standards (NCCLS) Document M7-A4 (NCCLS, 1997); (2) the guidelines of the National Committee for Clinical Laboratory Standards (NCCLS) Document M11-A4 (NCCLS, 1997); and (3) the guidelines and reference method of the National Committee for Clinical Laboratory Standards (NCCLS) Document M27-T (NCCLS, 1995). For antifungal essays, the method recommended in Murray, PR., 1995 Manual of Clinical Microbiology (ASM Press, Washington, D.C.), was employed.

[1] = test system: E. faecium ATCC 51559 (vancomycin resistant strain, VRE); assay type: cell-based, Enterococcus faecium; settings: B = E. faecium ATCC 51559
Excerpt: as §1

[2] = test system: S. aureus ATCC 13709 (methicillin sensitive strain, MSSA); assay type: cell-based, Staphylococcus aureus; settings: C = S. aureus ATCC 13709
Excerpt: as §1

[3] = test system: S. aureus ATCC 27660 (methicillin resistant strain, MRSA); assay type: cell-based, Staphylococcus aureus; settings: D = S. aureus ATCC 27660
Excerpt: as §1

S. aureus ATCC 33591 = assay type: cell-based, Staphylococcus aureus; settings: E = S. aureus ATCC 33591
Excerpt: as §1

[4] = test system: S. epidermidis ATCC 700586 (methycillin resistant strain, MRSE); assay type: cell-based, Staphylococcus epidermidis; settings: G = S. epidermidis ATCC 700586
Excerpt: as §1

[5] = test system: S. pneumoniae ATCC 51422 (penicillin resistant strain, PRSP); assay type: cell-based, Streptococcus pneumoniae; settings: H = S. pneumoniae ATCC 51422
Excerpt: as §1

| SMILES | Minimum Inhibitory Concentration (MIC) (B. Cereus ATCC 11778) | Minimum Inhibitory Concentration (MIC) [1] | Minimum Inhibitory Concentration (MIC) [2] | Minimum Inhibitory Concentration (MIC) [3] | Minimum Inhibitory Concentration (MIC) (S. aureus ATCC 33591) | Minimum Inhibitory Concentration (MIC) [4] | Minimum Inhibitory Concentration (MIC) [5] |
| --- | --- | --- | --- | --- | --- | --- | --- |
| Cn1cc(NC(=O)c2cc(NC(=O)c3cc(NC(=O)c4sc5cc6c(cc5c4Cl)OCO6)cn3C)cn2C)cc1C(=O)NCCN1CCOCC1 [Ib-20d] | +++ (+++ = MIC ≦ 4) | +++ (+++ = MIC ≦ 4) | +++ (+++ = MIC ≦ 4) | +++ (+++ = MIC ≦ 4) | +++ (+++ = MIC ≦ 4) | +++ (+++ = MIC ≦ 4) | +++ (+++ = MIC ≦ 4) |
| CN1CCN(CCCNC(=O)c2cc(NC(=O)c3sc4cc5c(cc4c3Cl)OCO5)cn2C)CC1 [Ib-20r] | +++ (+++ = MIC ≦ 4) | +++ (+++ = MIC ≦ 4) | +++ (+++ = MIC ≦ 4) | +++ (+++ = MIC ≦ 4) | +++ (+++ = MIC ≦ 4) | +++ (+++ = MIC ≦ 4) | +++ (+++ = MIC ≦ 4) |
| Cn1cc(NC(=O)c2cc(NC(=O)c3cc4ccccc4cn3)no2)cc1C(=O)OCCN1CCOCC1 [Ib-61] | +++ (+++ = MIC ≦ 4) | +++ (+++ = MIC ≦ 4) | +++ (+++ = MIC ≦ 4) | +++ (+++ = MIC ≦ 4) | +++ (+++ = MIC ≦ 4) | +++ (+++ = MIC ≦ 4) | +++ (+++ = MIC ≦ 4) |
| Cn1cc(NC(=O)c2cc(NC(=O)c3sc4cc5c(cc4c3Cl)OCO5)cn2C)cc1C(=O)NCCN1CCOCC1 [Ib-20e] | +++ (+++ = MIC ≦ 4) | +++ (+++ = MIC ≦ 4) | +++ (+++ = MIC ≦ 4) | +++ (+++ = MIC ≦ 4) | +++ (+++ = MIC ≦ 4) | +++ (+++ = MIC ≦ 4) | +++ (+++ = MIC ≦ 4) |
| CN1CCCC1CCNC(=O)c1cc(NC(=O)c2cc(NC(=O)c3cc(NC(=O)c4sc5cc6c(cc5c4Cl)OCO6)cn3C)cn2C)cn1C (stereo not drawn) [Ib-20m] | +++ (+++ = MIC ≦ 4) | +++ (+++ = MIC ≦ 4) | +++ (+++ = MIC ≦ 4) | +++ (+++ = MIC ≦ 4) | +++ (+++ = MIC ≦ 4) | +++ (+++ = MIC ≦ 4) | +++ (+++ = MIC ≦ 4) |
| Cn1cc(NC(=O)c2sc3cc4c(cc3c2Cl)OCO4)cc1C(=O)NCCN1CCSCC1 [Ib-20p] | +++ (+++ = MIC ≦ 4) | +++ (+++ = MIC ≦ 4) | +++ (+++ = MIC ≦ 4) | +++ (+++ = MIC ≦ 4) | +++ (+++ = MIC ≦ 4) | +++ (+++ = MIC ≦ 4) | +++ (+++ = MIC ≦ 4) |
| Cn1cc(NC(=O)c2cc(NC(=O)c3cc(NC(=O)c4sc5cc6c(cc5c4Cl)OCO6)cn3C)cn2C)cc1C(=O)NCCN1CCCC1 [Ib-20g] | +++ (+++ = MIC ≦ 4) | – | +++ (+++ = MIC ≦ 4) | +++ (+++ = MIC ≦ 4) | +++ (+++ = MIC ≦ 4) | +++ (+++ = MIC ≦ 4) | +++ (+++ = MIC ≦ 4) |

The next lines start with the values.

| Minimum Inhibitory Concentration (MIC) (B. Cereus ATCC 11778) | Minimum Inhibitory Concentration (MIC) [1] | Minimum Inhibitory Concentration (MIC) [2] | Minimum Inhibitory Concentration (MIC) [3] | Minimum Inhibitory Concentration (MIC) (S. aureus ATCC 33591) | Minimum Inhibitory Concentration (MIC) [4] | Minimum Inhibitory Concentration (MIC) [5] | SMILES |
| --- | --- | --- | --- | --- | --- | --- | --- |
| +++ (+++ = MIC ≦ 4) | +++ (+++ = MIC ≦ 4) | +++ (+++ = MIC ≦ 4) | +++ (+++ = MIC ≦ 4) | +++ (+++ = MIC ≦ 4) | +++ (+++ = MIC ≦ 4) | +++ (+++ = MIC ≦ 4) | Cc1cc(NC(=O)c2cc(NC(=O)c3cc(NC(=O)c4cc5ccccc5cn4)cn3C)cn2CCN2CCCC2)sn1 [Ib-65] |
| +++ (+++ = MIC ≦ 4) | +++ (+++ = MIC ≦ 4) | +++ (+++ = MIC ≦ 4) | +++ (+++ = MIC ≦ 4) | +++ (+++ = MIC ≦ 4) | +++ (+++ = MIC ≦ 4) | +++ (+++ = MIC ≦ 4) | Cn1cc(NC(=O)c2cc(NC(=O)c3cc(NC(=O)c4cc5ccccc5cn4)c[nH]3)cn2C)cc1C(=O)NCCN1CCC(F)CC1 [Ib-71] |
| +++ (+++ = MIC ≦ 4) | +++ (+++ = MIC ≦ 4) | +++ (+++ = MIC ≦ 4) | +++ (+++ = MIC ≦ 4) | +++ (+++ = MIC ≦ 4) | +++ (+++ = MIC ≦ 4) | + (+ = MIC from 12 to 32, inclusive) | COCn1cc(NC(=O)c2cc3ccccc3cn2)cc1C(=O)Nc1cc(C(=O)Nc2cc(C(=O)NCCN3CCOCC3)n(C)c2)n(C)c1 [Ib-72] |
| +++ (+++ = MIC ≦ 4) | +++ (+++ = MIC ≦ 4) | +++ (+++ = MIC ≦ 4) | +++ (+++ = MIC ≦ 4) | +++ (+++ = MIC ≦ 4) | +++ (+++ = MIC ≦ 4) | +++ (+++ = MIC ≦ 4) | Cc1cc(NC(=O)c2cc(NC(=O)c3cc(NC(=O)c4cc5ccccc5cn4)cn3C)cn2CCN2CCOCC2)sn1 [Ib-63] |
| +++ (+++ = MIC ≦ 4) | +++ (+++ = MIC ≦ 4) | +++ (+++ = MIC ≦ 4) | +++ (+++ = MIC ≦ 4) | +++ (+++ = MIC ≦ 4) | +++ (+++ = MIC ≦ 4) | +++ (+++ = MIC ≦ 4) | Cc1cc(NC(=O)c2cc(NC(=O)c3nc(NC(=O)c4cc5ccccc5cn4)cn3C)cn2CCN2CCOCC2)sn1 [Ib-77] |
| >32 µg/mL | +++ (+++ = MIC ≦ 4) | +++ (+++ = MIC ≦ 4) | +++ (+++ = MIC ≦ 4) | +++ (+++ = MIC ≦ 4) | +++ (+++ = MIC ≦ 4) | +++ (+++ = MIC ≦ 4) | Cn1cc(NC(=O)c2cc(NC(=O)c3cc(NC(=O)c4cc5ccccc5cn4)c[nH]3)cn2C)cc1C(=O)NCCc1ccccn1 [Ib-69] |
| +++ (+++ = MIC ≦ 4) | +++ (+++ = MIC ≦ 4) | +++ (+++ = MIC ≦ 4) | +++ (+++ = MIC ≦ 4) | +++ (+++ = MIC ≦ 4) | +++ (+++ = MIC ≦ 4) | +++ (+++ = MIC ≦ 4) | CC(=O)[O-].Cc1cc(NC(=O)c2cc(NC(=O)c3cc(NC(=O)c4cc5ccccc5cn4)cn3C)cn2CCC[N+](C)(C)C)sn1 [Ib-74] |
| +++ (+++ = MIC ≦ 4) | +++ (+++ = MIC ≦ 4) | +++ (+++ = MIC ≦ 4) | +++ (+++ = MIC ≦ 4) | +++ (+++ = MIC ≦ 4) | +++ (+++ = MIC ≦ 4) | +++ (+++ = MIC ≦ 4) | Cn1cc(NC(=O)c2cc3ccccc3cn2)cc1C(=O)Nc1cc(C(=O)Nc2cc(C(=O)NCCN3CCCCC3)n(CCN3CCCCC3)c2)n(C)c1 [Ib-68] |
| +++ (+++ = MIC ≦ 4) | +++ (+++ = MIC ≦ 4) | +++ (+++ = MIC ≦ 4) | +++ (+++ = MIC ≦ 4) | +++ (+++ = MIC ≦ 4) | +++ (+++ = MIC ≦ 4) | +++ (+++ = MIC ≦ 4) | Cc1cc(NC(=O)c2cc(NC(=O)c3cc(NC(=O)c4cc5ccccc5cn4)cn3C)cn2CCCN(C)C)sn1 [Ib-66] |
